Test results from article PMC6208323 (Cell chemical biology, 2018).
Read-outs that look alike come from different tables or passages of the source.

What was measured:
[1] = target: TnmS1 (Streptomyces sp. CB03234); assay: SEC
[2] = target: TnmS3 (Streptomyces sp. CB03234); assay: SEC
TnmS3 = TnmS3 (Streptomyces sp. CB03234, UniProt A0A125SA29); assay: fluorescence quenching; format: binding
TnmS2 = TnmS2 (Streptomyces sp. CB03234, UniProt A0A125SA26); assay: fluorescence quenching; format: binding
TnmS1 = TnmS1 (Streptomyces sp. CB03234, UniProt A0A125SA24); assay: fluorescence quenching; format: binding
[3] = target: TnmS2 (Streptomyces sp. CB03234); assay: SEC
CBFG_04671 = CBFG_04671 (Clostridium pacaense, UniProt A0ABV1D2N3); assay: fluorescence quenching; format: binding
(UniProt S2XVS8) = assay: fluorescence quenching; format: binding, Streptomyces sp. HGB0020
Sequence of (UniProt S2XVS8) (S2XVS8 1-128): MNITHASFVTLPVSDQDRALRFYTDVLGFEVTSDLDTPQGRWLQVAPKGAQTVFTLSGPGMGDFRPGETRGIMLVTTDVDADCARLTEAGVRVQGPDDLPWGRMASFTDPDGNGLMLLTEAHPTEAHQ

[4] = 20 mM MOPS pH 7.0, 28 °C, 2 μM protein, ligand in DMSO

## TnmS1 (natural protein)
[1]
  stoichiometry N: 2

## TnmS3 (natural protein)
[2]
  stoichiometry N: 2

## Cc1cc2nc3c(=O)[nH]c(=O)nc-3n(C[C@H](O)[C@H](O)[C@H](O)CO)c2cc1C [riboflavin]
TnmS3
  Kd: 1100 nM
TnmS2
  Kd: 59500 nM
TnmS1
  Kd: 84100 nM

## TnmS2 (natural protein)
[3]
  stoichiometry N: 2

## TNM C
TnmS3; [4]
  Kd: 215 ± 27 nM
TnmS2; [4]
  Kd: 361 ± 65 nM
TnmS1; [4]
  Kd: 350 ± 41 nM

## COc1ccc2c(c1O)C(=O)c1c3c(cc(O)c1C2=O)[C@@]12O[C@@]1([C@@H](C)O)[C@H](C#C/C=C\C#C[C@H]2O)N3 [TNM A]
CBFG_04671
  Kd: 855 ± 66 nM
TnmS3
  Kd: 108 ± 13 nM
TnmS2
  Kd: 246 ± 36 nM
(UniProt S2XVS8)
  Kd: 164 ± 23 nM
TnmS1
  Kd: 163 ± 17 nM
